These are literature values, as cited in patent US20240066015A1, “TREATMENT OF PAIN ASSOCIATED WITH PARKINSON'S DISEASE” (BIAL-PORTELA & CA., S.A., priority 2021, published 2024).

For data set [1] the following is noted: patients with PD and end-of-dose motor fluctuations.
For data set [2] the following is noted: transdermal patch, patients with advanced-stage PD; trial not powered for statistical significance.
The conditions of data set [3]: in comparison with placebo, added to levodopa-based therapy.
The conditions of data set [4]: oral administration, peripheral metabolism by DDC and COMT.
The conditions of data set [5]: hot plate test. Background: Hot-plate and tail-flick tests time the reaction to a heat stimulus.
Where [6] appears, read: BIPARK-II trial and OPTIPARK study.

Each structure is given as a SMILES string.

On to `Cc1c(Cl)c(C)[n+]([O-])c(Cl)c1-c1noc(-c2cc(O)c(O)c([N+](=O)[O-])c2)n1` [opicapone], for which, in data set [1], the OFF-time result is on record as “efficacious in reducing OFF-time” and the tolerability result is “generally well tolerated”. The “NMSS "Miscellaneous" domain effect compared with placebo” value (BIPARK-II trial) was “less than for that observed for placebo”. Moreover, under setting [6], the “NMSS "Miscellaneous" domain (includes pain as one aspect)” value is “positive signal” and the “specific effect on pain” value is listed as “no specific effect on pain was identifiable”.
For `CCCN(CCc1cccs1)[C@H]1CCc2c(O)cccc2C1` [rotigotine], in data set [2], the PD-associated chronic pain entry is reported as “may improve”.
Take `C[C@H](NCc1ccc(OCc2cccc(F)c2)cc1)C(N)=O` [Safinamide]: in data set [3], the PDQ-39 pain-related items result was “significantly improve two out of three” and the “need for pain medication” value is “significantly reduce”.
As for `N[C@@H](Cc1ccc(O)c(O)c1)C(=O)O` [levodopa], in data set [4], the “share of an oral dose that reaches the brain” value was 1%.
Regarding `CC(=O)C(=Cc1cc(O)c(O)c([N+](=O)[O-])c1)C(C)=O` [nitecapone], the “mediation of the analgesic effect” value in data set [5] is reported as “not mediated through the CNS”.
